Assays:
Assay type in all cases: in vivo
Kochia (Kochia scoparia) [1] = assay: Test A preemergence
Procedure, shortened: (§1)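 Seeds sprayed preemergence with a directed soil spray, or plants at 2 to 10 cm height and one- to two-leaf stage sprayed postemergence, with test chemicals in a non-phytotoxic solvent mixture containing surfactant, in loam soil–sand blend. Injury rated visually against untreated controls after about 10 d in greenhouse, 0 (no effect) to 100 (complete control).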

[2] = test system: ryegrass, Italian (Italian ryegrass, Lolium multiflorum); assay: Test A preemergence
Procedure, shortened: as §1

[3] = test system: ragweed (common ragweed, Ambrosia elatior); assay: Test A preemergence
Procedure, shortened: as §1

[4] = test system: barnyardgrass (Echinochloa crus-galli); assay: Test A preemergence
Procedure, shortened: as §1

[5] = test system: giant foxtail (Setaria faberii); assay: Test A preemergence
Procedure, shortened: as §1

[6] = test system: pigweed (Amaranthus retroflexus); assay: Test A preemergence
[7] = test system: wheat (Triticum aestivum); assay: Test A postemergence
Procedure, shortened: as §1

[8] = test system: Galium (catchweed bedstraw, Galium aparine); assay: Test A postemergence
Procedure, shortened: as §1

Kochia (Kochia scoparia) [9] = assay: Test A postemergence
Procedure, shortened: as §1

[10] = test system: ryegrass, Italian (Italian ryegrass, Lolium multiflorum); assay: Test A postemergence
Procedure, shortened: as §1

[11] = test system: ragweed (common ragweed, Ambrosia elatior); assay: Test A postemergence
Procedure, shortened: as §1

corn (Zea mays) = assay: Test A postemergence
Procedure, shortened: as §1

[12] = test system: barnyardgrass (Echinochloa crus-galli); assay: Test A postemergence
Procedure, shortened: as §1

[13] = test system: giant foxtail (Setaria faberii); assay: Test A postemergence
Procedure, shortened: as §1

[14] = test system: pigweed (Amaranthus retroflexus); assay: Test A postemergence
Procedure, shortened: as §1

[15] = test system: blackgrass (Alopecurus myosuroides); assay: Test A postemergence
Procedure, shortened: as §1

[16] = test system: ducksalad (Heteranthera limosa); assay: Test B flooded paddy test; details: Flood, 0 to 100 scale where 0 is no effect and 100 is complete control, 13 to 15 d
Procedure, shortened: (§2)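 Evaluation by eye, against controls, occurred 13–15 d post-treatment in a greenhouse, using a 0 (no effect) to 100 (complete control) scale. Application was into the paddy water, 3 cm deep over the soil, on 2-leaf plants.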

rice (Oryra sativa) = assay: Test B flooded paddy test; details: Flood, 0 to 100 scale where 0 is no effect and 100 is complete control, 13 to 15 d
Procedure, shortened: as §2

[17] = test system: barnyardgrass (Echinochloa crus-galli); assay: Test B flooded paddy test; details: Flood, 0 to 100 scale where 0 is no effect and 100 is complete control, 13 to 15 d
Procedure, shortened: as §2

[18] = test system: sedge, umbrella (small-flower umbrella sedge, Cyperus difformis); assay: Test B flooded paddy test; details: Flood, 0 to 100 scale where 0 is no effect and 100 is complete control, 13 to 15 d
Procedure, shortened: as §2

[19] = 125 g ai/ha, Preemergence, visual injury after approximately 10 d, 0 to 100 scale where 0 is no effect and 100 is complete control
[20] = Preemergence, 500 g ai/ha, visual injury approx. 10 d
[21] = 125 g ai/ha, postemergence, visual injury rating on 0 to 100 scale (0 no effect, 100 complete control), approx. 10 d
[22] = Postemergence, 500 g ai/ha, 0 to 100 scale where 0 is no effect and 100 is complete control
[23] = 500 g ai/ha, preemergence, 0 to 100 scale, 0 = no effect, 100 = complete control
[24] = 125 g ai/ha, postemergence, visual rating after approx. 10 d, 0 to 100 scale (0 no effect, 100 complete control)
[25] = 500 g ai/ha, postemergence, visual injury, 0 to 100 scale (0 no effect, 100 complete control), approx. 10 d

COCc1cccc(C2CNC(=O)C2C(=O)Nc2cccc(F)c2F)c1 (stereo not drawn) [Compound 497]
Plant response rating, Kochia (Kochia (Kochia scoparia) [1]; [19]): 20
Kochia plant response rating (0 to 100 scale, 0 is no effect, 100 is complete control) (Kochia (Kochia scoparia) [1]; [20]): 50
Plant response rating, Ryegrass, Italian [2, 19]: 0
Ryegrass, Italian plant response rating (0 to 100 scale, 0 is no effect, 100 is complete control) [2, 20]: 30
Plant response rating, Ragweed [3, 19]: 0
Ragweed plant response rating (0 to 100 scale, 0 is no effect, 100 is complete control) [3, 20]: 0
Plant response rating, Barnyardgrass [4, 19]: 90
Barnyardgrass plant response rating (0 to 100 scale, 0 is no effect, 100 is complete control) [4, 20]: 90
Plant response rating, Foxtail, Giant [5, 19]: 90
Foxtail, Giant plant response rating (0 to 100 scale, 0 is no effect, 100 is complete control) [5, 20]: 90
Plant response rating, Pigweed [6, 19]: 30
Pigweed plant response rating (0 to 100 scale, 0 is no effect, 100 is complete control) [6, 20]: 20
Wheat plant response rating [7, 21]: 0
Plant response rating, Wheat [7, 22]: 40
Galium plant response rating [8, 21]: 0
Plant response rating, Galium [8, 22]: 50
Kochia plant response rating (Kochia (Kochia scoparia) [9]; [21]): 30
Plant response rating, Kochia (Kochia (Kochia scoparia) [9]; [22]): 30
Ryegrass, Italian plant response rating [10, 21]: 0
Plant response rating, Ryegrass, Italian [10, 22]: 20
Ragweed plant response rating [11, 21]: 0
Plant response rating, Ragweed [11, 22]: 0
Corn plant response rating (corn (Zea mays); [21]): 0
Plant response rating, Corn (corn (Zea mays); [22]): 40
Barnyardgrass plant response rating [12, 21]: 60
Plant response rating, Barnyardgrass [12, 22]: 80
Foxtail, Giant plant response rating [13, 21]: 20
Plant response rating, Foxtail, Giant [13, 22]: 50
Pigweed plant response rating [14, 21]: 0
Plant response rating, Pigweed [14, 22]: 0
Blackgrass plant response rating [15, 21]: 30
Plant response rating, Blackgrass [15, 22]: 30
Plant response rating, Ducksalad ([16]; 250 g ai/ha): 90
Plant response rating, Rice (rice (Oryra sativa); 250 g ai/ha): 20
Plant response rating, Barnyardgrass ([17]; 250 g ai/ha): 70
Plant response rating, Sedge, Umbrella ([18]; 250 g ai/ha): 0

N#Cc1cccc(C2CNC(=O)C2C(=O)Nc2cccc(F)c2F)c1 (stereo not drawn) [Compound 621]
Plant response rating, Kochia (Kochia (Kochia scoparia) [1]; [19]): 0
Plant response rating, Kochia (Kochia (Kochia scoparia) [1]; [23]): 40
Plant response rating, Ryegrass, Italian [2, 19]: 0
Plant response rating, Ryegrass, Italian [2, 23]: 40
Plant response rating, Ragweed [3, 19]: 0
Plant response rating, Ragweed [3, 23]: 90
Plant response rating, Barnyardgrass [4, 19]: 90
Plant response rating, Barnyardgrass [4, 23]: 90
Plant response rating, Foxtail, Giant [5, 19]: 90
Plant response rating, Foxtail, Giant [5, 23]: 90
Plant response rating, Pigweed [6, 19]: 0
Plant response rating, Pigweed [6, 23]: 20
Plant response rating, Wheat [7, 24]: 0
Plant response rating, Wheat [7, 22]: 50
Plant response rating, Galium [8, 24]: 30
Plant response rating, Galium [8, 22]: 40
Plant response rating, Kochia (Kochia (Kochia scoparia) [9]; [24]): 0
Plant response rating, Kochia (Kochia (Kochia scoparia) [9]; [22]): 20
Plant response rating, Ryegrass, Italian [10, 24]: 0
Plant response rating, Ryegrass, Italian [10, 22]: 20
Plant response rating, Ragweed [11, 24]: 0
Plant response rating, Ragweed [11, 22]: 0
Plant response rating, Corn (corn (Zea mays); [24]): 0
Plant response rating, Corn (corn (Zea mays); [22]): 20
Plant response rating, Barnyardgrass [12, 24]: 90
Plant response rating, Barnyardgrass [12, 22]: 90
Plant response rating, Foxtail, Giant [13, 24]: 70
Plant response rating, Foxtail, Giant [13, 22]: 90
Plant response rating, Pigweed [14, 24]: 0
Plant response rating, Pigweed [14, 22]: 0
Plant response rating, Blackgrass [15, 24]: 0
Plant response rating, Blackgrass [15, 22]: 20
Plant response rating, Ducksalad ([16]; 250 g ai/ha): 100
Plant response rating, Rice (rice (Oryra sativa); 250 g ai/ha): 20
Plant response rating, Barnyardgrass ([17]; 250 g ai/ha): 50
Plant response rating, Sedge, Umbrella ([18]; 250 g ai/ha): 0

O=C1NCC(c2cccc(C(F)(F)F)c2)C1C(=O)Nc1ccc(Cl)cc1F (racemic) [Compound 675]
Plant response rating, Kochia (Kochia (Kochia scoparia) [1]; [19]): 0
Plant response rating, Kochia (Kochia (Kochia scoparia) [1]; [23]): 0
Plant response rating, Ryegrass, Italian [2, 19]: 0
Plant response rating, Ryegrass, Italian [2, 23]: 20
Plant response rating, Ragweed [3, 19]: 0
Plant response rating, Ragweed [3, 23]: 0
Plant response rating, Barnyardgrass [4, 19]: 70
Plant response rating, Barnyardgrass [4, 23]: 80
Plant response rating, Foxtail, Giant [5, 19]: 70
Plant response rating, Foxtail, Giant [5, 23]: 90
Plant response rating, Pigweed [6, 19]: 0
Plant response rating, Pigweed [6, 23]: 0
Plant response rating, Wheat [7, 24]: 0
Plant response rating, Wheat [7, 25]: 0
Plant response rating, Galium [8, 24]: 0
Plant response rating, Galium [8, 25]: 0
Plant response rating, Kochia (Kochia (Kochia scoparia) [9]; [24]): 0
Plant response rating, Kochia (Kochia (Kochia scoparia) [9]; [25]): 0
Plant response rating, Ryegrass, Italian [10, 24]: 0
Plant response rating, Ryegrass, Italian [10, 25]: 0
Plant response rating, Ragweed [11, 24]: 0
Plant response rating, Ragweed [11, 25]: 0
Plant response rating, Corn (corn (Zea mays); [24]): 0
Plant response rating, Corn (corn (Zea mays); [25]): 0
Plant response rating, Barnyardgrass [12, 24]: 40
Plant response rating, Barnyardgrass [12, 25]: 70
Plant response rating, Foxtail, Giant [13, 24]: 50
Plant response rating, Foxtail, Giant [13, 25]: 80
Plant response rating, Pigweed [14, 24]: 0
Plant response rating, Pigweed [14, 25]: 0
Plant response rating, Blackgrass [15, 24]: 0
Plant response rating, Blackgrass [15, 25]: 20
Plant response rating, Ducksalad ([16]; 500 g ai/ha): 75
Plant response rating, Rice (rice (Oryra sativa); 500 g ai/ha): 15
Plant response rating, Barnyardgrass ([17]; 500 g ai/ha): 60
Plant response rating, Sedge, Umbrella ([18]; 500 g ai/ha): 0
